Results reported in patent US10947263B2, “Cyclic dinucleotides as anticancer agents” (BRISTOL-MYERS SQUIBB COMPANY, priority 2017, dated 2021).

Assays:
[1] = tested on: STING / IRF pathway in THP1-Dual cells; assay: STING THP1 Reporter Assay, IRF pathway (secreted Lucia luciferase, QUANTI-Luc); assay type: cell-based; settings: Homo sapiens, THP1-Dual, 20 h, 10% human plasma, 100% activation = 100 μM cGAMP, luciferase readout, read-out: THP1 Reporter Assays EC50 IRF3
Text: (§1) THP1-Dual™ cells were derived from the human THP-1 monocyte cell line by stable integration of two inducible reporter constructs. To this end, THP1-Dual™ cells allow the simultaneous study of the […], by monitoring the activity of SEAP, and the IRF pathway by assessing the activity of a secreted luciferase (Lucia). Both reporter proteins are readily measurable in the cell culture supernatant when using QUANTI-Blue™, a SEAP detection reagent, and QUANTI-Luc™, a luciferase detection reagent.
(§2) THP1-Dual™ cells induce the activation of NF-κB in response to STING agonists. They also trigger the IRF pathway upon stimulation with STING agonists, such as cGAMP. Here, the THP-1-Dual cells were used to assess STING binders for function on the cellular level.
(§3) Serial dilutions of compounds in DMSO were added to low volume 384 well plates at 100 nl/well using an ECHO acoustic dispenser (Labcyte, model 550) to achieve final starting concentration of 100 μM in cell suspension. THP-1 Dual™ STING reporter cells (Invivogen, Dual cells cat #THPD-nfis) were added to the plates with compounds at 15,000 cells in 10 μL per well in RPMI media (Gibco, cat #11875) containing 10% human plasma in a low volume 384-well black wall clear bottom tissue culture plate (Corning, cat #3542) for SEAP assay and low volume solid white plate (Corning, cat #3826) for luciferase assay. One column of the plate was reserved for treatment with cGAMP at 100 μM for 100% activation calculation and one column for no treatment (DMSO only) for baseline activation. Plates were then incubated in 37 OC incubator at 5% CO2 for 20 hours.
(§4) In the SEAP assay, […] 2× QuantiBlue (Invivogen, cat #Rep-qb2) is added to 384 well black plates seeded with THP1 cells and incubated at 37° C. for 2 hours. Plates were read on the Envision (Perkin Elmer) at 620 nm wavelength (OD620). In the luciferase assay, 5 μl of Quantiluc (Invivogen, Rep-qlc2) is added to white 384 well plates seeded with THP1 cells and read at 5 minutes on the Envision (Perkin Elmer) using a luminescence protocol (RLU). For both cell lines, 100% activation was determined by value (RLU) of THP-1 Dual STING cells stimulated with 100 μM cGAMP (Invivogen, cat #TLRL-NACGA23-5).

[2] = tested on: STING / NF-κB pathway in THP1-Dual cells; assay: STING THP1 Reporter Assay, NF-κB pathway (SEAP, QUANTI-Blue); assay type: cell-based; settings: Homo sapiens, THP1-Dual, 20 h, 10% human plasma, 100% activation = 100 μM cGAMP, SEAP readout, read-out: THP1 Reporter Assays EC50 NFkB
Text: as §1, §2, §3, §4

[3] = target: T1, STING WT (His-TVMV-S-hSTING(155-341)-H232R) (Homo sapiens, UniProt Q86WV6, H232R); assay: STING HTRF binding assay (time resolved FRET competition), STING WT; settings: 20 nM His-tagged STING WT cytoplasmic domain, 200 nM fluorescein-labeled cGAMP analog probe, one hour; read-out: HTRF Binding Assays IC50 WT
T1 construct: STING WT: His-TVMV-S-hSTING(155-341)-H232R
Experimental: (§5) A time resolved FRET-based competition binding assay was used to assess test article binding to STING WT and STING AQ. His-tagged STING cytoplasmic domain (WT or AQ) at a concentration of 20 nM was incubated with 2.5 nM Tb-labeled anti-His antibody, test compound, and fluorescein-labeled cGAMP analog probe (BioLog cat. no. C195) at a concentration of 200 nM (STING WT) or 40 nM (STING AQ) in PBS containing 0.005% Tween-20 and 0.1% BSA for one hour. Fluorescence at 495 nm and 520 nm was measured using an EnVision microplate reader to quantify FRET between Tb-labeled anti-His antibody and fluorescein-labeled probe. Background was defined as the signal obtained in the absence of STING protein, and background subtracted FRET ratios were normalized to the maximum signal obtained in the absence of test compound. These values were converted to a percent inhibition. Percent inhibition was determined for test compounds at 11 concentrations. The IC50, defined as the concentration of competing test compound needed to reduce specific binding of the probe by 50%, was calculated using the 4 parameter logistic equation to fit the data
STING WT: His-TVMV-S-hSTING(155-341)-H232R • […] […] […] […] LRQEEKEEV (SEQ ID NO:1)

[4] = target: T2, STING AQ (His-TVMV-S-hSTING(155-341)-G230A-R293Q) (Homo sapiens, UniProt Q86WV6, G230A/H232R/R293Q); assay: STING HTRF binding assay (time resolved FRET competition), STING AQ; settings: 20 nM His-tagged STING AQ cytoplasmic domain, 40 nM fluorescein-labeled cGAMP analog probe, one hour; read-out: HTRF Binding Assays IC50 AQ
T2 construct: STING AQ: His-TVMV-S-hSTING(155-341)-G230A-R293Q
Experimental: as §5
STING AQ: His-TVMV-S-hSTING(155-341)-G230A-R293Q • […] […] […] […] LRQEEKEEV (SEQ ID NO:2)

T2 sequence (Q86WV6 with tags, fused parts or gaps G230A/H232R/R293Q): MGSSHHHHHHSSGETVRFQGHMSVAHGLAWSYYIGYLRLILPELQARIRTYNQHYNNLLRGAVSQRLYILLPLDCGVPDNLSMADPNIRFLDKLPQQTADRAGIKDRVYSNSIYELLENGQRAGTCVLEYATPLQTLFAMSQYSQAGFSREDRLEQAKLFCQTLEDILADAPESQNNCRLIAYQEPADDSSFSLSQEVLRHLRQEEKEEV
T1 sequence (Q86WV6 with tags, fused parts or gaps H232R): as the sequence (Q86WV6 with tags, fused parts or gaps G230A/H232R/R293Q) above, with A99G, Q162R counted along it

SMILES	EC50 [1]	EC50 [2]	IC50 [3]	IC50 [4]
Nc1ncnc2c1ncn2[C@@H]1O[C@@H]2COP(=O)(O)O[C@@H]3[C@H](O)[C@@H](COP(=O)(O)O[C@H]2[C@H]1O)O[C@H]3n1nnc2c([N+](=O)[O-])cccc21 [Example 2, (1R,6R,8R,9R,10S,15R,17R, 18R)-8-(6-amino-9H-purin-9-yl)-3,9,12,18-tetrahydroxy-17-(4-nitro-1H-1,2,3-benzo-triazol-1-yl)-2,4,7,11,13,16-hexaoxa-3λ^5,12λ^5-diphospha-tricyclo[13.2.1.0^6,^10]octa-decane-3,12-dione]	53 µM	80 µM	0.16 µM	0.005 µM
NC(=O)c1cccc2c1nnn2[C@@H]1O[C@@H]2COP(=O)(O)O[C@H]3[C@@H](F)[C@H](n4cnc5c(N)ncnc54)O[C@@H]3COP(=O)(O)O[C@@H]1[C@@H]2F [Example 3, 1-[(1S,6R,8R,9R,10R,15R, 17R,18R)-8-(6-amino-9H-purin-9-yl)-9,18-difluoro-3,12-dihydroxy-3,12-dioxo-2,4,7,11,13,16-hexaoxa-3λ^5,12λ^5-diphosphatricyclo [13.2.1.0^6,^10]octadecan-17-yl]-1H-1,2,3-benzotriazole-4-carboxamide]	3.5 µM	6.7 µM	0.03 µM	0.01 µM
O=[N+]([O-])c1cccc2c1nnn2[C@@H]1O[C@@H]2COP(=O)(S)O[C@H]3[C@@H](F)[C@H](n4cnc5c4ncn4ccnc54)O[C@@H]3COP(=O)(S)O[C@@H]1[C@@H]2F (stereo partly drawn) [Example 14-1, (1S,6R,8R,9R,10R,15R,17R,18R)-9,18-difluoro-8-{3H-imidazo[2,1-f]purin-3-yl}-17-(4-nitro-1H-1,2,3-benzotriazol-1-yl)-3,12-disulfanyl-2,4,7,11,13,16-hexaoxa-3λ^5,12λ^5-diphosphatricyclo[13.2.1.0^6,10]octadecane-3,12-dione]	3.3 µM	11.7 µM	0.05 µM	0.01 µM
Nc1ncnc2c1ncn2[C@@H]1O[C@@H]2COP(=O)(O)O[C@@H]3[C@H](O)[C@@H](COP(=O)(S)O[C@H]2[C@H]1O)O[C@H]3n1nnc2c([N+](=O)[O-])cccc21 (stereo partly drawn) [Example 18-1, (1R,6R,8R,9R,10S,15R,17R,18R)-8-(6-amino-9H-purin-9-yl)-3,9,18-trihydroxy-17-(4-nitro-1H-1,2,3-benzotriazol-1-yl)-12-sulfanyl-2,4,7,11,13,16-hexaoxa-3λ^5,12λ^5-diphosphatricyclo[13.2.1.0^6,10]octadecane-3,12-dione]	> 100 µM	> 100 µM	> 100 µM	66.9 µM
Nc1ncnc2c1ncn2[C@@H]1O[C@@H]2COP(=O)(O)O[C@@H]3[C@H](O)[C@@H](COP(=O)(S)O[C@H]2[C@H]1F)O[C@H]3n1nnc2c([N+](=O)[O-])cccc21 (stereo partly drawn) [Example 19-1, (1R,6R,8R,9R,10R,15R,17R, 18R)-8-(6-amino-9H-purin-9-yl)-9-fluoro-3,12,18-trihydroxy-17-(4-nitro-1H-1,2,3-benzotriazol-1-yl)-12-sulfanylidene-2,4,7,11,13, 16-hexaoxa-3λ^5,12λ^5-diphos-phatricyclo[13.2.1.0^6,10]octa-decan-3-one]	> 100 µM	> 100 µM	4.66 µM	0.65 µM
